Experiment [1] addresses T1, Protein kinase C alpha type (Homo sapiens, UniProt P17252). As to the kind of experiment: Displacement of [3H]PDBU from protein kinase C-alpha (Inactive). Background: Loss of bound radioactivity is the signal in a displacement assay; it reports binding, not function.
Experiment [2] has as its system Mus musculus. Description: Tested in vivo for inflammatory potency in the mouse ear. The format is functional.
Experiment [3] concerns the target T1, Protein kinase C alpha type. As to the kind of experiment: Displacement of [3H]-PDBU from protein kinase C-alpha.
For experiment [4] the target is unchanged. As to the kind of experiment: Displacement of [3H]PDBU from protein kinase C-alpha.

For the compound `CC1=C[C@@]23CCCC[C@@H](C=C(CO)[C@@H](O)[C@]2(O)[C@H]1O)C3=O`, the Ki – broadly, a dissociation constant, usually derived from enzyme kinetics or from competition with a known ligand – in experiment [1] is “Not Active”.

`CC1=CC23C(=O)[C@@H](C=C(COC(=O)c4ccccc4)[C@@H](O)[C@]2(O)[C@H]1OC(=O)c1ccccc1)[C@H]1[C@@H](C[C@H]3C)C1(C)C` registered a Potency in experiment [2] of 0.054 nM.

In turn, `CC1=CC23C(=O)[C@@H](C=C(CO)[C@@H](O)[C@]2(O)[C@H]1O)[C@H]1[C@@H](C[C@H]3C)C1(C)C` registered a Ki in experiment [3] of 240 nM.

Take `CCCCC(=O)O[C@@H]1[C@@H](C)[C@@]2(O)[C@@H](C=C(CO)C[C@]3(O)C(=O)C(C)=C[C@@H]23)[C@@H]2C(C)(C)[C@]12OC(=O)CCCC`: in experiment [2], the Potency is 0.067 nM. In experiment [3], this compound displayed a Ki of 0.54 nM.

In experiment [4], `CC1=CC23C(=O)[C@@H](C=C(CO)[C@@H](O)[C@]2(O)[C@H]1OC(=O)c1ccccc1)[C@H]1[C@@H](C[C@H]3C)C1(C)C` yielded an inhibition constant Ki of 0.14 nM.

`O=C(O[C@H]1CCC23CCCC[C@H](C=C(CO)C[C@H]12)C3=O)c1ccccc1` displayed a Ki in experiment [4] of 165 nM.

The values above are taken from ChEMBL document CHEMBL1127207, “Synthesis of ingenol analogs wth affinity for protein kinase C” (Bioorg Med Chem Lett, 1993).
